# Values quoted from earlier work in paper PMC8398451, “Molecular Engineering of Curcumin, an Active Constituent of Curcuma longa L. (Turmeric) of the Family Zingiberaceae with Improved Antiproliferative Activity” (Plants, 2021).
# Legend:
# Parameters in all cases: method as in earlier work
# Conditions in all cases: cited from earlier work; for Mean % GI: 10 µM, retrieved from NCI data-ware
# [1] = tested on: CNS Cancer cell line panel
# [2] = tested on: Colon Cancer cell line panel
# [3] = tested on: Renal Cancer cell line panel
# Melanoma cell line panel = tested on: Melanoma cell line panel
# [4] = tested on: Prostate Cancer cell line panel
# [5] = tested on: Ovarian Cancer cell line panel
# [6] = tested on: Breast Cancer cell line panel
# [7] = tested on: Non-Small Cell Lung Cancer cell line panel
# Leukemia cell line panel = tested on: Leukemia cell line panel
# [8] = five-dose assay, curcumin NCI data
Structure (SMILES),Mean % GI [1],"GI50 [1, 8]",Mean % GI [2],"GI50 [2, 8]",Mean % GI [3],"GI50 [3, 8]",Mean % GI (Melanoma cell line panel),GI50 (Melanoma cell line panel; [8]),Mean % GI [4],"GI50 [4, 8]",Mean % GI [5],"GI50 [5, 8]",Mean % GI [6],"GI50 [6, 8]",Mean % GI [7],"GI50 [7, 8]",Mean % GI (Leukemia cell line panel),GI50 (Leukemia cell line panel; [8])
"COc1cc(/C=C/C(=O)CC(=O)/C=C/c2ccc(O)c(OC)c2)ccc1O [Cur, Curcumin]",60.75%,5.8 µM,95.76%,4.7 µM,45.35%,8.9 µM,54.63%,5.9 µM,61.3%,11.2 µM,44.66%,9.1 µM,56.1%,8.1 µM,49.27%,9.2 µM,97.76%,3.7 µM
COc1cc2ncnc(Nc3ccc(F)c(Cl)c3)c2cc1OCCCN1CCOCC1 [Gefitinib],46.13%,,52.19%,,77.89%,,44.99%,,59.6%,,60.93%,,52.88%,,63.97%,,79.68%,
